Measured values from patent US20220016092A1, “METHODS FOR TREATING SYMPTOMS AND DISORDERS ASSOCIATED WITH LYSOSOMAL STORAGE DISEASES” (GENZYME CORPORATION, priority 2019, published 2022).
Where “and” joins values, the source holds several entries; their conditions need not be identical. Identical values can stand only once. Entries after “also recorded” stand apart in the source; their conditions may differ.

Assays:
[1] = tested on: GM3 expression in B16 mouse melanoma cells; assay: GM3 fluorescent-linked immunosorbent assay (FLISA), B16 cells; assay type: cell-based; conditions: 48 hours
From the text: Inhibition of glucosylceramide synthase activity can be measured with one or more assays. A first assay is a microsomal assay that directly measures the conversion of ceramide to glucosylceramide by HPLC. Microsomes are a source of glucosylceramide synthase activity in the microsomal assay. A second assay is a cell based, phenotypic assay that monitors cell surface expression of the downstream lipid GM3 by antibody mediated immunofluorescence. Specific protocols are provided below.
This is a phenotypic assay that measures GM3 expression in B16 mouse melanoma or C32 human melanoma cells following treatment with test compounds. Cell surface GM3 expression is determined by antibody mediated fluorescence.
Compounds are diluted in media and plated in 384 well plates in DMSO. B16 and C32 cells are assayed at densities of 20,000 cells/ml and 62,500 cells/ml, respectively, per well. Each titration curve contains 10 points that are assayed in duplicate on each test run. The plates are incubated for 48 hours at 37° C., 5% CO2, and are then washed once with TBS. Anti-GM3 antibody is added to each well and the plates are then incubated for an additional one hour at room temperature. Plates are subsequently washed twice and incubated for an additional hour with the labeled secondary antibody. Following the final incubation, the plates are washed twice and the fluorescence at λex=D640/20 nm and λem=657 nm is detected on a fluorescent reader.
The results of the microsomal assays are expressed as “GCS IC50”, which represents the concentration of the compound causing 50% inhibition of glucosylceramide synthase activity. The results of the cell-based assays are expressed as “GM3 B16 IC50” or “GM3 C32 IC50” for the B16 assay and the C32 assay, respectively. These values represent the concentration of the compound causing 50% inhibition of GM3 expression on the cell surface.

[2] = tested on: healthy, human volunteers; assay: Phase 1 studies in healthy volunteers: safety; assay type: in vivo
Protocol: Compound 2 is also known as venglustat.
In all studies, safety profile was assessed by monitoring treatment-emergent adverse events (TEAEs) through 10 days after last dose of study medication, including serious adverse events [SAEs]), ECG monitoring, laboratory values, and physical examinations.

[3] = tested on: GL-3 inclusions in superficial endothelial cell capillaries; assay: Clinical study in Fabry disease patients: GL-3 inclusion volume fraction by electron microscopy; assay type: in vivo, human; conditions: 15 mg/day oral
From the text: In addition to scoring GL-3 skin inclusions by light microscopy, the fraction of the volume of endothelial cell cytoplasm occupied by GL-3 inclusions was estimated using point-counting of electron microscopic images by a masked reader. Images from at least 50 superficial endothelial cell capillaries were obtained using electron microscopy at 7500× magnification. Two-sided t tests were used to evaluate differences between baseline and post-treatment values at each time point.

[4] = tested on: adult patients with Gaucher disease Type 3; assay: Clinical study in GD-3 patients: interstitial lung disease by high-resolution CT; assay type: in vivo, human; conditions: 15 mg/day + imiglucerase
Protocol: (§1) During the study patients were evaluated for safety and tolerability, CSF and plasma biomarkers (glucosylceramide, GL-1; glucosylsphingosine, lyso-GL1), pharmacokinetics, markers for systemic disease (spleen and liver volume measured by magnetic resonance imaging (MRI), platelet count, hemoglobin levels), indicia of interstitial lung disease (high resolution pulmonary computed tomography (CT)), and horizontal saccadic eye movement.
Severity of interstitial lung disease was characterized by the percent of lung volume affect by ILD as measured by high-resolution CT in four lung regions (aortic arch, carina, lower zone L3, lower zone L4). Patients were rated as having severe ILD (51-100% of lung volume affected), moderate ILD (26-50% of lung volume affected), mild ILD (1-25% of lung volume affected) or normal (0% of lung volume showing ILD).

[5] = tested on: adult patients with Gaucher disease Type 3; assay: Clinical study in GD-3 patients: markers for systemic disease (platelets, spleen volume, hemoglobin); assay type: in vivo, human; conditions: 15 mg/day + imiglucerase
Protocol: as §1
Individual patient data for platelet counts are shown in the table below (shown as 10^9 platelets/L): […]

[6] = tested on: chitotriosidase (CHITO), GM3, GPNMB, ceramide; assay: Clinical study in GD-3 patients: exploratory biomarkers; assay type: in vivo, human
Protocol: Four exploratory biomarkers were quantified in plasma, serum and/or CSF of GD3 patients at week 4 and week 26: chitotriosidase (CHITO; an enzyme known to be elevated in GD patients) was measured in CSF and serum; GM3 (a glycosphingolipid marker known to be elevated in GD patients) was measured in CSF and plasma; and glycoprotein nonmetastatic melanoma protein B (GPNMB; reportedly a biomarker of neuropathic GD3) was measured in CSF. The results are shown in the table below as percent change from baseline at week 4 and week 26 for each parameter:
In addition, exploratory biomarkers were quantified in CSF of GD3 patients: ceramide (the precursor of GL-1), chitotriosidase (CHITO), GM3, and GPNMB.

[7] = Week 26, individual Patients 1-5
[8] = 15 mg/day + imiglucerase, Week 4, individual Patients 1-5
[9] = 15 mg/day + imiglucerase, Week 26, individual Patients 1-5

In the case of `CC(C)(NC(=O)O[C@@H]1CN2CCC1CC2)c1csc(-c2ccc(F)cc2)n1` [Compound 2, (S)-quinuclidin-3-yl 2-(2-(4-fluorophenyl)thiazol-4-yl)propan-2-ylcarbamate], the IC50 [1] is reported as 107 nM, the “Hematologic or biochemical abnormalities” value ([2]; all Phase 1 studies) is reported as “No clinically relevant hematologic or biochemical abnormalities” and the Vital signs ([2]; all Phase 1 studies) is reported as “no relevant changes from baseline”. For the same molecule, the “Deaths, SAEs, severe TEAEs, discontinuations” value ([2]; all Phase 1 studies (single 2-150 mg; 5-20 mg daily for 14 days)) was “no deaths, SAEs, severe TEAEs, or TEAEs leading to study discontinuation”, the ECG parameters ([2]; single ascending dose and food effect studies) was “no relevant changes” and the “Volume fraction (volume of inclusions/total cytoplasmic volume)” value ([3]; 3 months (N = 9)) was 0.29 ± 0.06. The “Volume fraction, Change from baseline” value ([3]; 3 months (N = 9), P 0.74) was −1.9%, the “Volume fraction (volume of inclusions/total cytoplasmic volume)” value ([3]; 3 years (N = 6)) was 0.18 ± 0.03 and the “Volume fraction, Change from baseline” value ([3]; 3 years (N = 6), P 0.001) was −38.7%. For the same molecule, the “Volume fraction (volume of inclusions/total cytoplasmic volume)” value ([3]; 6 months (N = 8)) was 0.23 ± 0.04, the “Volume fraction, Change from baseline” value ([3]; 6 months (N = 8), P 0.001) was −21.1% and the “ILD severity, Aortic Arch Left” value [4, 7] was “Norm (normal (0% of lung volume showing ILD)); also recorded: Mild (mild ILD (1-25% of lung volume affected))”. The “ILD severity, Aortic Arch Right” value [4, 7] was “Norm (normal (0% of lung volume showing ILD)); also recorded: Mild (mild ILD (1-25% of lung volume affected))”, the “ILD severity, Carina Left” value [4, 7] was “Norm (normal (0% of lung volume showing ILD)); also recorded: Mild (mild ILD (1-25% of lung volume affected))” and the “ILD severity, Carina Right” value [4, 7] was “Norm (normal (0% of lung volume showing ILD)); also recorded: Mod (moderate ILD (26-50% of lung volume affected)); also recorded: Mild (mild ILD (1-25% of lung volume affected))”. The “ILD severity, Zone L3 Left” value [4, 7] was “Norm (normal (0% of lung volume showing ILD)); also recorded: Mild (mild ILD (1-25% of lung volume affected))”, the “ILD severity, Zone L3 Right” value [4, 7] was “Norm (normal (0% of lung volume showing ILD)); also recorded: Mild (mild ILD (1-25% of lung volume affected))” and the “ILD severity, Zone L4 Left” value [4, 7] was “Norm (normal (0% of lung volume showing ILD)); also recorded: Mod (moderate ILD (26-50% of lung volume affected))”. For the same molecule, the “ILD severity, Zone L4 Right” value [4, 7] was “Norm (normal (0% of lung volume showing ILD)); also recorded: Mod (moderate ILD (26-50% of lung volume affected))”, the “Patients showing regression of ILD” value ([4]; after 26 weeks) was 4 out of 5 and the Hemoglobin levels ([5]; 26 weeks) was “no clinically meaningful changes in hemoglobin levels”. For the same molecule, the “Platelet count increase in the three patients with lowest baseline platelet counts” value ([5]; 26 weeks) was 23-42%, the “Patients with reductions in splenic volume of 10% or more” value ([5]; 26 weeks (5 patients)) was “Two” and the Systemic deterioration ([5]; 26 weeks, all patients) was “absence of systemic deterioration”. For the same molecule, the Platelet count ([5]; Week 4, individual Patients 1-5) was 203 10^9 platelets/L and 243 10^9 platelets/L and 247 10^9 platelets/L and 239 10^9 platelets/L and 154 10^9 platelets/L, the Platelet count ([5]; Week 12, individual Patients 1-5) was 214 10^9 platelets/L and 294 10^9 platelets/L and 264 10^9 platelets/L and 314 10^9 platelets/L and 180 10^9 platelets/L and the Platelet count [5, 7] was 264 10^9 platelets/L and 236 10^9 platelets/L and 248 10^9 platelets/L and 267 10^9 platelets/L and 173 10^9 platelets/L. The Hemoglobin levels ([5]; Week 52) was “no clinically meaningful changes in hemoglobin levels”, the “Platelet count maintained by all patients” value ([5]; Week 52) was “greater than 120 ×10^9/L” and the “Patients with spleen volume reductions” value ([5]; Week 52 (six patients)) was “two”. The “Mean platelet concentration increase” value ([5]; Week 52, range −8.2% to +45.3%) was 9.3%, the “Platelet count, % Change from baseline to 26 weeks” value ([5]; individual Patients 1-5) was “+42% and +23% and −4.3% and −13% and +36%” and the “Platelet counts, average rise from baseline” value ([5]; week 26) was 17%. The “GM3 in CSF” value ([6]; 15 mg/day + imiglucerase, 4, 26 and 52 weeks, the four of six patients measurable at baseline) was “undetectable”, the “CHITO in CSF, percent change from baseline” value [6, 8] was −5% and +11% and +9% and −6% (2×) and the “CHITO in Serum, percent change from baseline” value [6, 8] was −11% and +8% and −7% and −12% and −1%. The “GM3 in CSF, percent change from baseline” value [6, 8] was −51% and −59% (2×) and 0%, the “GM3 in Plasma, percent change from baseline” value [6, 8] was −70% and −63% and −65% and −62% and −47% and the “GPNMB in CSF, percent change from baseline” value [6, 8] was −63% and +30% and +9% and −6% and −2%. The “CHITO in CSF, percent change from baseline” value [6, 9] was −10% and −11% and +20% and −1% and +68%, the “CHITO in Serum, percent change from baseline” value [6, 9] was −43% and −55% and −1% and +98% and −11% and the “GM3 in CSF, percent change from baseline” value [6, 9] was −51% and 0% (2×) and −59% (2×). The “GM3 in Plasma, percent change from baseline” value [6, 9] was −86% and −69% and −74% and −72% and +10%, the “GPNMB in CSF, percent change from baseline” value [6, 9] was −14% and 0% and +45% and +10% and −8% and the “CSF concentrations of ceramide, CHITO or GPNMB” value ([6]; 15 mg/day + imiglucerase, after 52 weeks) was “no significant changes”.
